Values of other authors in PubChem BioAssay AID1259409 (Chemical Carcinogenesis Research Information System (CCRIS), 2018).

Tested on: rodent chemically induced tumor inhibition, incidence and multiplicity
Assay: CCRIS tumor inhibitor studies
Settings: Dose [Inhibitor]: 0
Text: The CCRIS database contains chemical records with carcinogenicity, mutagenicity, tumor promotion, and tumor inhibition test results. It was developed by the National Cancer Institute (NCI). Data are derived from studies cited in primary journals, current awareness tools, NCI reports, and other sources. Test results have been reviewed by experts in carcinogenesis and mutagenesis.
CCRIS provides historical information from the years 1985 - 2011. It is no longer updated.
This is an archive assay for CCRIS tumor inhibitor studies.

c1ccc2c(c1)Nc1ccccc1S2
tumour outcome (control, treated, inhibition, significance) (Carcinogen: BENZO[A]PYRENE, 50-32-8, 3.8 UMOL/G DIET BEGINNING 1 WK PRIOR TO CARCINOGEN TREATMENT AND CONTINUING FOR 1 WK POST CARCINOGEN TREATMENT FOLLOW, Route [Inhibitor]: ORAL, Species: MOUSE, Strain/Sex: CD-1/FEMALE, Target Tissue: Type of Lesion: FORESTOMACH: PAPILLOMA, Dose [Carcinogen]: 1 MG IN 0.2 ML CORN OIL 2/WK FOR 4 WK, Promoter: NONE USED): 85%, 100%, -18%, not significant

CC(=C/C=C/C(C)=C/C=C/C=C(C)/C=C/C=C(\C)C=C=C1C(C)(C)C[C@H](O)C[C@@]1(C)O)/C=C/[C@@]12O[C@]1(C)C[C@@H](O)CC2(C)C
tumour outcome (control, treated, inhibition, significance) (Carcinogen: 7,12-DIMETHYLBENZ[A]ANTHRACENE, 57-97-6, 0.2 UG IN 0.2 ML ACETONE APPLIED TO BUCCAL POUCH 2/WK FOR 2 WK 1 HR PRIOR TO EACH PROMOTER DOSE (STUDY DURATION: 34 W, Route [Inhibitor]: MUCOUS MEMBRANE, Species: HAMSTER, Strain/Sex: SYRIAN/MALE,FEMALE, Target Tissue: Type of Lesion: BUCCAL POUCH: TUMOR, Dose [Carcinogen]: 200 NMOL IN 0.2 ML ACETONE 3/WK FOR 2 WK, Promoter: 12-O-TETRADECANOYLPHORBOL-13-ACETATE, 16561-29-8): 3/6 (50%), 0/6 (0%), 100%, not calculated
tumour outcome (control, treated, inhibition, significance) (Carcinogen: 7,12-DIMETHYLBENZ[A]ANTHRACENE, 57-97-6, 0.2 UG IN 0.2 ML ACETONE APPLIED TO BUCCAL POUCH 3/WK FOR 2 WK 1 HR PRIOR TO EACH CARCINOGEN DOSE (STUDY DURATION: 34, Route [Inhibitor]: MUCOUS MEMBRANE, Species: HAMSTER, Strain/Sex: SYRIAN/MALE,FEMALE, Target Tissue: Type of Lesion: BUCCAL POUCH: TUMOR, Dose [Carcinogen]: 200 NMOL IN 0.2 ML ACETONE 3/WK FOR 2 WK, Promoter: 12-O-TETRADECANOYLPHORBOL-13-ACETATE, 16561-29-8): 3/6 (50%), 0/6 (0%), 100%, not calculated

C[S+](CC[C@H](N)C(=O)[O-])C[C@H]1O[C@@H](n2cnc3c(N)ncnc32)[C@H](O)[C@@H]1O (stereo not given in full)
tumour outcome (control, treated, inhibition, significance) (Carcinogen: 1,2-DIMETHYLHYDRAZINE, 540-73-8, 96 UMOL/KG 4/D FOR 32 WK BEGINNING 1 WK POST CARCINOGEN DOSE (STUDY DURATION: 33 WK), Route [Inhibitor]: INTRAMUSCULAR, Species: RAT, Strain/Sex: F344/MALE, Target Tissue: Type of Lesion: LIVER: HEPATOCELLULAR CARCINOMA, Dose [Carcinogen]: 100 MG/KG ONCE 18 HR AFTER RATS WERE SUBJECTED TO TWO-THIRDS HEPATECTOMY, Promoter: OROTIC ACID, 65-86-1): 6/16 (38%), 1/24 (4%), 89%, not calculated
tumour outcome (control, treated, inhibition, significance) (Carcinogen: DIETHYLNITROSAMINE, 55-18-5, N-ACETYLAMINOFLUORENE, 53-96-3, Carcinogen: DIETHYLNITROSAMINE, 55-18-5, N-ACETYLAMINOFLUORENE, 53-96-3, 64 UMOL/KG 6/D FOR 24 WK BEGINNING POST CARCINOGEN TREATMENT (STUDY DURATION: 28 MO), Route [Inhibitor]: INTRAMUSCULAR, Species: RAT, Strain/Sex: WISTAR/MALE, Target Tissue: Type of Lesion: LIVER: CARCINOMA, Dose [Carcinogen]: 150 MG/KG DEN ONCE THEN 2 WK LATER 0.03% AAF IN DIET FOR 2 WK WITH A PARTIAL HEPATECTOMY PERFORMED MIDWAY THROUGH CARCIN, Promoter: PHENOBARBITAL, 50-06-6): 10/10 (100%), 3/11 (27%), 73%, p<0.025
